The record followed here is article PMC7616161 (ACS chemical neuroscience, 2020).

Common to all, as to format: cell-based
Experiment [1] has as its target T1, hM1 WT mAChR (M1 muscarinic acetylcholine receptor) (Homo sapiens, UniProt P11229).
T1 sequence (P11229 1-460): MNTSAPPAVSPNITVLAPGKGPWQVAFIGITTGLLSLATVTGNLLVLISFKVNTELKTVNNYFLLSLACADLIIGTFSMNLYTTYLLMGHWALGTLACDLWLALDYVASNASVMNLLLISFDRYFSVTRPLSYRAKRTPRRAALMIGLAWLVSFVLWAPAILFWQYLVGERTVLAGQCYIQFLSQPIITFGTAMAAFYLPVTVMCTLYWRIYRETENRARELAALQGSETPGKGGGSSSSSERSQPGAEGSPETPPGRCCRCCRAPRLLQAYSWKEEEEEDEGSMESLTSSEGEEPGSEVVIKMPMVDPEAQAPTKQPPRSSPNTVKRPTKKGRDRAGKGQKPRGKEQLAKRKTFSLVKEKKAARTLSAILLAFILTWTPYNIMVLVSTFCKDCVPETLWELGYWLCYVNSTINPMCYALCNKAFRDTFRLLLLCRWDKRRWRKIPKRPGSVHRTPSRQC
Description: whole-cell [3H]NMS inhibition binding, allosteric ternary complex model.

Experiment [2] addresses T2, hM1 WT mAChR (M1 muscarinic acetylcholine receptor) (Homo sapiens, UniProt P11229, A196G/Y106C).
T2 sequence (P11229 1-460 Y106C/A196G): T1 sequence (P11229 1-460) with Y106C, A196G
Described as above.

The target of experiment [3] is T1, hM1 WT mAChR (M1 muscarinic acetylcholine receptor). Nature of the experiment: IP1 accumulation. Particulars: for pEC50^b / IP1 / M1WT: […] h, […] °C, pH […].
The target is the same in experiment [4]. Description: cell-based.
The target in experiment [5] is T3, hM1 WT mAChR (M1 muscarinic acetylcholine receptor) (Homo sapiens, UniProt P11229, Y106C/A196G).
T3 sequence (P11229 1-460 Y106C/A196G): T1 sequence (P11229 1-460) with Y106C, A196G
Description: cell-based.

Experiment [6] deals with T2, hM1 WT mAChR (M1 muscarinic acetylcholine receptor). Description: IP1 accumulation.
Experiment [7] has the same target. Description: cell-based.
For experiment [8], the target named is T3, hM1 WT mAChR (M1 muscarinic acetylcholine receptor). Description: whole-cell [3H]NMS inhibition binding, allosteric ternary complex model. As to conditions: M1 DREADD, printed as Y3.[…] and A5.[…]; HBSS, […] HEPES pH […]; allosteric.

Changes are numbered by the printed parent chain.

Usually Ki stands for the dissociation constant of the complex between target and ligand, obtained from inhibition or displacement. High values mean lower affinity, low ones higher affinity. As usually defined, the EC50 is the concentration giving half of the maximal effect. High values mean a less potent agent, low ones a more potent agent. Consider `O=C(N[C@H]1CCCC[C@@H]1O)[C@H]1CN(Cc2ccc(-n3cccn3)cc2)c2ccccc2O1` [VU0486846, (2R)-N-[(1S,2S)-2-hydroxycyclohexyl]-4-[(4-pyrazol-1-ylphenyl)-methyl]-2,3-dihydro-1,4-benzoxazine-2-carboxamide], for which the Ki in experiment [1] is 794 nM; in experiment [2], 25100 nM. In experiment [3], this compound had an EC50 of 372 nM.

Consider `O=C1CCCN1CC#CCN1CCCC1` [oxotremorine], for which the “pEC50^b / IP1 / M1WT” value in experiment [3] (orthosteric agonist) is given as 7.68 ± 0.12. Besides, the “pKI^b (nH)^c / M1WT” value in experiment [4] was 6.0 ± 0.04. In addition, the “pKI^b (nH)^c / M1DREADD” value in experiment [5] stood at 4.3 ± 0.05.

As for `Cc1cnc(C(=O)N[C@H]2CCOC[C@@H]2O)cc1Cc1ccc(-c2cscn2)cc1` [PF-06767832, N-((3R,4S)-3-hydroxytetrahydro-2H-pyran-4-yl)-5-methyl-4-(4-(thiazol-4-yl)benzyl)pyridine-2-carboxamide], the Ki was 501 nM in experiment [1] and 5010 nM in experiment [2]. In experiment [3], this compound showed a half-maximal effective concentration (EC50) of 12.9 nM.

Compound `C[N+]1([O-])CCN(C2=Nc3cc(Cl)ccc3Nc3ccccc32)CC1` [CNO] showed an EC50 in experiment [6] of 5.37 nM. The results for the Ki in experiment [4] and in experiment [7] were 12600 nM and 126 nM, respectively.

Regarding `Cn1cc(-c2ccc(COc3ccccc3-c3cc(=O)n(C4CCCCC4O)cn3)cc2)cn1` (stereo not drawn) [MIPS1780, 3-(2-hydroxycyclohexyl)-6-(2-((4-(1-methyl-1H-pyrazol-4-yl)-benzyl)oxy)phenyl)-pyrimidin-4(3H)-one], the “pKI^b (nH)^c / M1WT” value in experiment [1] (HBSS, […] HEPES pH […], allosteric) is listed as 6.0 ± 0.10. In addition, the “pKI^b (nH)^c / M1DREADD” value in experiment [8] is on record as 5.3 ± 0.09. Besides, the “pEC50^b / IP1 / M1WT” value in experiment [3] (allosteric agonist, no ACh added) is 6.86 ± 0.19.
